In patent publication US7803930B2, “Antisense modulation of apolipoprotein B-expression” (Isis Pharmaceuticals, Inc., priority 2002, dated 2010):

Columns and labels:
[1] = High fat fed C57BL/6 mice, 6 week timecourse: serum cholesterol, triglyceride, lipoprotein and glucose levels; type: in vivo, mouse; details: for Percent Inhibition HDL / Percent Inhibition LDL / Percent Inhibition VLDL: negative = increase; for Percent Inhibition of serum cholesterol levels: normalized to saline control; for Triglycerides: study end (control 115 mg/dL); for serum cholesterol: study end (control 240 mg/dL); for serum glucose levels: study termination (saline control 300 mg/dL)
Experimental: Male C57BL/6 mice (n=8) receiving a high fat diet (60% kcal fat) were evaluated over the course of 6 weeks for the effects of treatment with the antisense oligonucleotide, ISIS 147764. Control animals received saline treatment (50 mg/kg). A subset of animals received a daily oral dose (20 mg/kg) atorvastatin calcium (Lipitor®, Pfizer Inc.). All mice, except atorvastatin-treated animals, were dosed intraperitoneally every three days (twice a week), after fasting overnight, with 5, 25, 50 mg/kg ISIS 147764 (SEQ ID No: 109) or saline (50 mg/kg) for six weeks. Serum cholesterol and lipoproteins were analyzed at 0, 2 and 6 week interim timepoints. At study termination, animals were sacrificed 48 hours after the final injections and evaluated for levels of target mRNA levels in liver, cholesterol, lipoprotein, triglyceride, liver enzyme (AST and ALT) and serum glucose levels as well as body, liver, spleen and fat pad weights.
Male C57BL/6 mice (n=8) receiving a high fat diet (60% kcal fat) were evaluated over the course of 6 weeks for the effects of ISIS 147764 on serum cholesterol and triglyceride levels. Control animals received saline treatment (50 mg/kg). Mice were dosed intraperitoneally every three days (twice a week), after fasting overnight, with 5, 25, 50 mg/kg ISIS 147764 (SEQ ID No: 109) or saline (50 mg/kg) for six weeks.
Values in the table are expressed as percent inhibition and are normalized to the saline control.
In addition to serum cholesterol, at study termination, animals were sacrificed 48 hours after the final injections and evaluated for triglyceride levels.
Male C57BL/6 mice (n=8) receiving a high fat diet (60% kcal fat) were evaluated over the course of 6 weeks for the effects of ISIS 147764 on lipoprotein (VLDL, LDL and HDL) levels. Control animals received saline treatment (50 mg/kg). Mice were dosed intraperitoneally every three days (twice a week), after fasting overnight, with 5, 25, 50 mg/kg ISIS 147764 (SEQ ID No: 109) or saline (50 mg/kg) for six weeks.
Values in the table are expressed as percent inhibition and are normalized to the saline control. Negative values indicate an observed increase in lipoprotein levels.
Male C57BL/6 mice (n=8) receiving a high fat diet (60% kcal fat) were evaluated over the course of 6 weeks for the effects of ISIS 147764 on serum glucose levels. Control animals received saline treatment (50 mg/kg). Mice were dosed intraperitoneally every three days (twice a week), after fasting overnight, with 5, 25, 50 mg/kg ISIS 147764 (SEQ ID No: 109) or saline (50 mg/kg) for six weeks.
At study termination, animals were sacrificed 48 hours after the final injections and evaluated for serum glucose levels. […] Mice treated with atorvastatin at a daily oral dose of 20 mg/kg had serum glucose levels of 215 mg/dL.

[2] = test system: mouse apolipoprotein B mRNA; test: High fat fed mice (Example 65): mouse apolipoprotein B mRNA and serum cholesterol levels; type: in vivo
Experimental: Male C57Bl/6 mice were divided into the following groups, consisting of 5 animals each: (1) mice on a lean diet, injected with saline (lean control); (2) mice on a high fat diet; (3) mice on a high fat diet injected with 50 mg/kg of the control oligonucleotide 141923 (SEQ ID NO: 858); (4) mice on a high fat diet given 20 mg/kg atorvastatin calcium (Lipitor®, Pfizer Inc.); (5) mice on a high fat diet injected with 10, 25 or 50 mg/kg ISIS 147764 (SEQ ID NO: 109). Saline and oligonucleotide treatments were administered intraperitoneally twice weekly for 6 weeks. Atorvastatin was administered daily for 6 weeks. At study termination, liver samples were isolated from each animal and RNA was isolated for Northern blot qualitative assessment, DNA microarray and quantitative real-time PCR. Northern blot assessment and quantitative real-time PCR were performed as described by other examples herein.
Mouse apolipoprotein B mRNA and serum cholesterol levels, measured as described herein, were evaluated to confirm antisense inhibition by ISIS 147764 and ISIS 147483. […] The 50 mg/kg dose of ISIS 147483 increased ALT and AST levels.

GTCCCTGAAGATGTCAATGC (2'-MOE gapmer, further chemistry not given here) [ISIS 147764]
Percent Inhibition HDL ([1]; 5 mg/kg i.p., 0 weeks): 0%
Percent Inhibition LDL ([1]; 5 mg/kg i.p., 0 weeks): 0%
Percent Inhibition VLDL ([1]; 5 mg/kg i.p., 0 weeks): 0%
Percent Inhibition of serum cholesterol levels ([1]; 5 mg/kg i.p., 0 weeks): 0%
Percent Inhibition HDL ([1]; 5 mg/kg i.p., 2 weeks): 5%
Percent Inhibition LDL ([1]; 5 mg/kg i.p., 2 weeks): −30%
Percent Inhibition VLDL ([1]; 5 mg/kg i.p., 2 weeks): 25%
Percent Inhibition of serum cholesterol levels ([1]; 5 mg/kg i.p., 2 weeks): 5%
Percent Inhibition HDL ([1]; 5 mg/kg i.p., 6 weeks): 10%
Percent Inhibition LDL ([1]; 5 mg/kg i.p., 6 weeks): −10%
Percent Inhibition VLDL ([1]; 5 mg/kg i.p., 6 weeks): 10%
Percent Inhibition of serum cholesterol levels ([1]; 5 mg/kg i.p., 6 weeks): 10%
Triglycerides ([1]; 5 mg/kg): 125 mg/dL
serum cholesterol ([1]; 5 mg/kg): 225 mg/dL
serum glucose levels ([1]; 5 mg/kg): 225 mg/dL
Percent Inhibition HDL ([1]; 25 mg/kg i.p., 0 weeks): 0%
Percent Inhibition LDL ([1]; 25 mg/kg i.p., 0 weeks): 0%
Percent Inhibition VLDL ([1]; 25 mg/kg i.p., 0 weeks): 0%
Percent Inhibition of serum cholesterol levels ([1]; 25 mg/kg i.p., 0 weeks): 0%
Percent Inhibition HDL ([1]; 25 mg/kg i.p., 2 weeks): 10%
Percent Inhibition LDL ([1]; 25 mg/kg i.p., 2 weeks): 10%
Percent Inhibition VLDL ([1]; 25 mg/kg i.p., 2 weeks): 30%
Percent Inhibition of serum cholesterol levels ([1]; 25 mg/kg i.p., 2 weeks): 12%
Percent Inhibition HDL ([1]; 25 mg/kg i.p., 6 weeks): 45%
Percent Inhibition LDL ([1]; 25 mg/kg i.p., 6 weeks): 55%
Percent Inhibition VLDL ([1]; 25 mg/kg i.p., 6 weeks): −30%
Percent Inhibition of serum cholesterol levels ([1]; 25 mg/kg i.p., 6 weeks): 45%
Triglycerides ([1]; 25 mg/kg): 150 mg/dL
serum cholesterol ([1]; 25 mg/kg): 125 mg/dL
serum glucose levels ([1]; 25 mg/kg): 190 mg/dL
lowering of serum lipoproteins compared to atorvastatin ([1]; 50 mg/kg): lowering all categories of serum lipoproteins investigated to a greater extent than atorvastatin
Percent Inhibition HDL ([1]; 50 mg/kg i.p., 0 weeks): 0%
Percent Inhibition LDL ([1]; 50 mg/kg i.p., 0 weeks): 0%
Percent Inhibition VLDL ([1]; 50 mg/kg i.p., 0 weeks): 0%
Percent Inhibition of serum cholesterol levels ([1]; 50 mg/kg i.p., 0 weeks): 0%
Percent Inhibition HDL ([1]; 50 mg/kg i.p., 2 weeks): 10%
Percent Inhibition LDL ([1]; 50 mg/kg i.p., 2 weeks): 40%
Percent Inhibition VLDL ([1]; 50 mg/kg i.p., 2 weeks): 40%
Percent Inhibition of serum cholesterol levels ([1]; 50 mg/kg i.p., 2 weeks): 20%
Percent Inhibition HDL ([1]; 50 mg/kg i.p., 6 weeks): 50%
Percent Inhibition LDL ([1]; 50 mg/kg i.p., 6 weeks): 90%
Percent Inhibition VLDL ([1]; 50 mg/kg i.p., 6 weeks): 15%
Percent Inhibition of serum cholesterol levels ([1]; 50 mg/kg i.p., 6 weeks): 55%
Triglycerides ([1]; 50 mg/kg): 85 mg/dL
serum cholesterol ([1]; 50 mg/kg): 110 mg/dL
serum glucose levels ([1]; 50 mg/kg): 180 mg/dL
mouse apolipoprotein B mRNA and serum cholesterol levels [2]: lowered in a dose-dependent manner
